Experiments:
[1] = Plasma pharmacokinetics after oral administration of YCHT in control (normal) rats, UHPLC-MS/MS; format: in vivo, Sprague-Dawley rats; details: for CL/F / Cmax / MRT inf / MRT last / Tmax / half-life: Sprague-Dawley
Description: The validated method was used for the pharmacokinetic study.
P<0.05 represented statistical significance.

[2] = Plasma pharmacokinetics after oral administration of YCHT in model (CCl4-induced acute liver injury) rats, UHPLC-MS/MS
Procedure: The quality control (QC) and plasma samples were analyzed by an Agilent 6470 triple quadrupole LC–MS system (Agilent Technologies, Inc., Santa Clara, CA, USA), which consists of an Agilent 1290 Infinity II system connected to a triple quadrupole MS analyzer with an Agilent Jet Stream technologies electrospray ionization (ESI) interface. The Agilent 1290 LC system is equipped with degasser (G7116B), high speed pump (G7120A) and multisampler (G7167B). The samples (2 μL) were injected into the LC system. A MassHunter workstation was applied for LC–MS control and data acquisition.
Chromatographic separation was conducted with a CAPCELL PAK ADME (2.1 mm × 100 mm, 3 μm; Shiseido Co., Ltd., Tokyo, Japan). The mobile phase included 0.1% formic acid (A) and methanol (B), and the flow rate was 0.3 mL/min. Iridoid glycosides and anthraquinones were detected in the isocratic elution, which was kept 80% B for 5.5 min in the negative mode. The others were separated in the positive mode with another gradient program, which was maintained at 45% B for 0.5 min, then increased to 95% B in 2 min, and maintained at 95% B until 4.5 min, and the post time is 2 min.
The optimal parameters for the ESI interface were as follows: nebulizer, 45 psi; dry gas, 10 L/min; dry temp, 350°C; sheath gas, 11 L/min; sheath gas temp, 350°C; capillary voltage, 4000 V (in the positive mode) and 3500 V (in the negative mode); and delta EMV, 200 V. The MS parameters for iridoid glycosides and anthraquinones were improved in the negative mode, and the MS parameters for the other analytes were improved in positive mode.
The animals were randomly divided into the control group (n = 6) and the model group (n = 6): the model rats, i.e., acute liver injury rats, were induced by intraperitoneal injections of CCl4 diluted with olive oil (1:1, v/v) at a dose of 1.5 mL/kg.bw every day for three days, and the rats in the control group were administered with olive oil.
After being thawed at room temperature, 100 μL plasma was put in a 1.5 mL centrifuge tube, and then 100 μL IS solution and 300 μL acetonitrile was added. After the mixture was vortexed for 1 min, it was centrifuged at 12000 rpm for 10 min at 4°C to precipitate the protein. Then the supernatant was transferred to another clean centrifuge tube, and evaporated to dryness under nitrogen stream, the residue was reconstituted in 50 μL methanol-water (1:1, v/v). After centrifuging at 12000 rpm for 10 min at 4°C again, a 2 μL aliquot of supernatant was injected for LC–MS/MS analysis.
The validated method was used for the pharmacokinetic study. Standard diet was withheld over night before oral administration of YCHT, but with free access to water. And YCHT (60 g/kg) was administered to the rats by gastric perfusion, equivalent to 10.09 mg/kg of scoparone, 0.49 mg/kg scopoletin, 17.16 mg/kg of geniposide, 9.86 mg/kg of rhein, 2.66 mg/kg of aloe-emodin, 2.24 mg/kg of chrysophanol, 0.83 mg/kg of emodin, and 0.58 mg/kg of physcion.
A series of blood samples (0.3 mL) were collected from the rats' postorbital venous plexuses at 0 (pre-dose), 5, 10, 15, 30, 45, 60, 90, 120, 240, 480, 600, 720 and 1440 min, and put into heparinized tubes. The heparinized plasma was immediately centrifuged to separate at 3000 g for 10 min and stored at −80°C before experiments. The analytes' concentrations in plasma were determined by LC–MS/MS methods described above.
The plasma concentrations were expressed as arithmetic mean ± standard deviation (SD). And the mean concentration–time curves were calculated and plotted by DAS (version 3.0, Bio Guider Co., Shanghai, China), and the PK parameters consist of elimination half-life (t1/2), area under the plasma concentration-time curve (AUC), and mean residence time (MRT). The maximum plasma concentrations (Cmax) and corresponding peak time (Tmax) were obtained from the observed data directly.

P-glycoprotein (P-gp) = tested on: P-glycoprotein (P-gp); parameters: method as in PMID 25776492, PMID 26121397; details: cited from earlier work
[3] = control rats, oral YCHT 60 g/kg, plasma, n = 6
[4] = Fr = (AUCmodel/AUCcontrol)∗100%, oral YCHT 60 g/kg
[5] = Sprague-Dawley, rat, in vivo, po, 60 g/kg
[6] = model (CCl4 liver injured) rats, oral YCHT 60 g/kg, plasma, n = 6
[7] = rat, in vivo, control rats, oral YCHT 60 g/kg, plasma, n = 6, read-out: CLz/F (converted)
[8] = rat, in vivo, control rats, oral YCHT 60 g/kg, plasma, n = 6, read-out: MRT0–t
[9] = rat, in vivo, control rats, oral YCHT 60 g/kg, plasma, n = 6, read-out: MRT0–∞
[10] = rat, in vivo, control rats, oral YCHT 60 g/kg, plasma, n = 6, read-out: Tmax
[11] = rat, in vivo, control rats, oral YCHT 60 g/kg, plasma, n = 6, read-out: t 1/2 (converted)
[12] = Sprague-Dawley, rat, plasma, po, 60 g/kg
[13] = rat, in vivo, control rats, oral YCHT 60 g/kg, plasma, n = 6, read-out: Cmax
[14] = Sprague-Dawley, rat, in vivo, po

| SMILES | CL/F ([1]; rat, in vivo, po, 60 g/kg) | Cmax ([1]; rat, in vivo, po, 60 g/kg) | MRT inf ([1]; rat, in vivo, po, 60 g/kg) | MRT last ([1]; rat, in vivo, po, 60 g/kg) | Tmax ([1]; rat, in vivo, po, 60 g/kg) | half-life ([1]; rat, in vivo, po, 60 g/kg) | AUC0–t [1, 3] | AUC0–∞ [1, 3] | Fr (relative bioavailability) [2, 4] | CL/F [2, 5] | Cmax [2, 5] | MRT inf [2, 5] | MRT last [2, 5] | Tmax [2, 5] | half-life [2, 5] | AUC0–t [2, 6] | AUC0–∞ [2, 6] | CL/F [1, 7] | MRT last [1, 8] | MRT inf [1, 9] | other results |
| --- | --- | --- | --- | --- | --- | --- | --- | --- | --- | --- | --- | --- | --- | --- | --- | --- | --- | --- | --- | --- | --- |
| COc1cc(O)c2c(c1)C(=O)c1cc(C)cc(O)c1C2=O [Physcion] | 450 mL/min/kg | 8.45 ± 1.61 ng/mL | 3.54 ± 0.49 h | 2.88 ± 0.25 h | 1.25 ± 0.27 h | 2.65 ± 0.99 h | 21.05 ± 4.04 ug/L∗h | 22.44 ± 5.54 ug/L∗h | 213.68% | 211 mL/min/kg | 9.99 ± 2.86 ng/mL | 5.26 ± 1.3 h | 4.07 ± 0.4 h | 2.58 ± 1.11 h | 3.06 ± 2.37 h | 44.98 ± 13.92∗∗ ug/L∗h | 48.47 ± 12.74∗∗ ug/L∗h |  |  |  |  |
| COC(=O)C1=CO[C@@H](O[C@@H]2O[C@H](CO)[C@@H](O)[C@H](O)[C@H]2O)[C@@H]2C(CO)=CC[C@H]12 [Geniposide] |  |  |  |  |  |  | 1940.63 ± 210.72 ug/L∗h | 1958.65 ± 206.96 ug/L∗h | 257.67% | 55.7 mL/min/kg | 1860 ± 109 ng/mL | 5.99 ± 0.61 h | 4.68 ± 0.57 h | 0.58 ± 0.2 h | 6.59 ± 2.46 h | 5000.36 ± 755.13∗∗ ug/L∗h | 5223.83 ± 746.92∗∗ ug/L∗h | 147 mL/min/kg | 4.57 ± 0.41 h | 4.8 ± 0.47 h | Cmax ([1]; rat, in vivo, 60 g/kg, normal group, oral YCHT, read-out: Cmax): 751 ± 47.7 ng/mL; Tmax [1, 10]: 0.33 ± 0.13 h; half-life [1, 11]: 3.55 ± 0.38 h |
| COc1cc2ccc(=O)oc2cc1OC [Scoparone] |  |  |  |  |  |  | 2282.77 ± 390.03 ug/L∗h | 2347.92 ± 428.69 ug/L∗h | 227.64% |  |  |  |  |  |  | 5196.54 ± 513.37∗∗ ug/L∗h | 5197.06 ± 513.33∗∗ ug/L∗h |  |  |  | CL/F ([1]; rat, control rats, oral YCHT 60 g/kg, plasma, n = 6, read-out: CLz/F (converted)): 73.7 mL/min/kg; Cmax ([1]; rat, control rats, oral YCHT 60 g/kg, plasma, n = 6, read-out: Cmax): 939 ± 112 ng/mL; MRT last ([1]; rat, control rats, oral YCHT 60 g/kg, plasma, n = 6, read-out: MRT0–t): 3.19 ± 0.16 h; MRT inf ([1]; rat, control rats, oral YCHT 60 g/kg, plasma, n = 6, read-out: MRT0–∞): 3.51 ± 0.14 h; Tmax ([1]; rat, control rats, oral YCHT 60 g/kg, plasma, n = 6, read-out: Tmax): 0.54 ± 0.1 h; half-life ([1]; rat, control rats, oral YCHT 60 g/kg, plasma, n = 6, read-out: t 1/2 (converted)): 2.14 ± 0.71 h; CL/F [2, 12]: 32.7 mL/min/kg; Cmax [2, 12]: 1770 ± 107 ng/mL; MRT inf [2, 12]: 3.95 ± 0.26 h; MRT last [2, 12]: 3.94 ± 0.26 h; Tmax [2, 12]: 0.33 ± 0.13 h; half-life [2, 12]: 1.58 ± 0.13 h; AUC in model rats higher than in normal rats ([2]; model vs normal rats, oral YCHT): approximately 2 fold |
| O=C(O)c1cc(O)c2c(c1)C(=O)c1cccc(O)c1C2=O [Rhein] | 82 mL/min/kg | 664 ± 50.3 ng/mL | 5.38 ± 0.49 h | 4.79 ± 0.36 h | 0.33 ± 0.13 h | 4.64 ± 2.14 h | 2031.40 ± 385.58 ug/L∗h | 2074.39 ± 387.77 ug/L∗h | 268.45% | 31.2 mL/min/kg | 1760 ± 140 ng/mL | 4.67 ± 0.65 h | 4.38 ± 0.41 h | 0.54 ± 0.19 h | 3.62 ± 1.97 h | 5453.29 ± 1202.14∗∗ ug/L∗h | 5518.78 ± 1256.46∗∗ ug/L∗h |  |  |  |  |
| COc1cc2ccc(=O)oc2cc1O [Scopoletin] | 1180 mL/min/kg | 3.53 ± 0.67 ng/mL | 6.9 ± 4.2 h | 4.4 ± 0.44 h | 0.19 ± 0.04 h | 3.62 ± 3.85 h | 5.86 ± 0.50 ug/L∗h | 7.41 ± 2.53 ug/L∗h | 123.38% | 1100 mL/min/kg | 3.34 ± 1.19 ng/mL | 5.56 ± 0.63 h | 4.81 ± 0.43 h | 0.13 ± 0.05 h | 2.2 ± 0.82 h | 7.23 ± 1.84 ug/L∗h | 7.83 ± 2.00 ug/L∗h |  |  |  | P-gp substrate (P-glycoprotein (P-gp)): not P-gp substrates |
| Cc1cc(O)c2c(c1)C(=O)c1cc(O)cc(O)c1C2=O [Emodin] |  |  |  |  |  |  | 10.41 ± 0.83 ug/L∗h | 12.06 ± 1.53 ug/L∗h |  | 1050 mL/min/kg | 3.89 ± 0.89 ng/mL | 6.64 ± 0.78 h | 4.83 ± 0.25 h | 0.17 ± 0.05 h | 3.64 ± 0.79 h | 11.66 ± 2.70 ug/L∗h | 13.49 ± 2.43 ug/L∗h | 1160 mL/min/kg | 4.94 ± 0.26 h | 6.65 ± 1.99 h | P-gp substrate (P-glycoprotein (P-gp)): not P-gp substrates; Cmax [1, 13]: 3.51 ± 0.59 ng/mL; Tmax [1, 10]: 0.2 ± 0.17 h; half-life [1, 11]: 3.33 ± 1.67 h; Fr (relative bioavailability) [2, 14]: 112.01% |
| Cc1cc(O)c2c(c1)C(=O)c1cccc(O)c1C2=O [Chrysophanol] | 363 mL/min/kg | 34.5 ± 4.99 ng/mL | 3.34 ± 0.21 h | 2.93 ± 0.16 h | 0.63 ± 0.26 h | 2 ± 0.23 h |  |  |  | 257 mL/min/kg | 37.6 ± 6.51 ng/mL | 4.2 ± 0.77 h | 3.43 ± 0.4 h | 0.88 ± 0.35 h | 3.12 ± 1.74 h |  |  |  |  |  | AUC0–t ([1]; rat, in vivo, po, 60 g/kg): 99.34 ± 10.12 ug/L∗h; AUC0–∞ ([1]; rat, in vivo, po, 60 g/kg): 103.57 ± 10.09 ug/L∗h; Fr (relative bioavailability) [2, 14]: 142.23%; AUC0–t ([2]; rat, in vivo, po, 60 g/kg): 141.29 ± 27.92∗∗ ug/L∗h; AUC0–∞ ([2]; rat, in vivo, po, 60 g/kg): 148.47 ± 25.04∗∗ ug/L∗h |
| O=C1c2cccc(O)c2C(=O)c2c(O)cc(CO)cc21 [Aloe-emodin] |  |  |  |  |  |  | 54.61 ± 6.50 ug/L∗h | 60.86 ± 6.68 ug/L∗h | 281.30% | 283 mL/min/kg | 36.7 ± 3.09 ng/mL | 4.07 ± 0.4 h | 3.68 ± 0.34 h | 0.58 ± 0.3 h | 1.98 ± 0.71 h | 153.62 ± 18.13∗∗ ug/L∗h | 158.71 ± 19.26∗∗ ug/L∗h | 737 mL/min/kg | 3.34 ± 0.12 h | 4.33 ± 0.84 h | Cmax [1, 13]: 15.2 ± 1.68 ng/mL; Tmax [1, 10]: 0.54 ± 0.19 h; half-life [1, 11]: 2.26 ± 1.15 h |
